Test system: fever induced by dry yeast in rats
Experiment: Dry yeast-induced fever in rats
Assay type: in vivo
Conditions: composition 3.34 g crude drugs/kg, aspirin 0.20 g/kg, X ± SD, n = 10
Experimental: Male SD rats, weighing 180-220 g were fed adaptively for 1 week, with the environmental temperature maintained at 20-25° C. The rectal temperature of the rats was measured once daily at 10:00 am for two consecutive days to acclimate them to this procedure. The average of the two temperature measurements was taken as the baseline temperature. Rats with a temperature range of 37.0-38.6° C. and a fluctuation <0.5° C. were selected for the experiment. Each rat was subcutaneously injected with 10 ml/kg of a 20% suspension of dry yeast to induce fever. (Preparation method: 120 g of dry yeast was weighed and placed in a mortar, gradually adding distilled water to grind into a uniform suspension, and then adjusted to a volume of 600 mL, prepare this solution fresh.) Six hours after injecting the yeast suspension, the body temperature of the rats was measured. One hundred and seventy rats with a temperature increase ranging from 1.0 to 2.2 degrees Celsius were selected and randomly divided into 17 groups based on their temperatures. […] Each group was orally gavaged with the corresponding solvent or drug, and rectal temperature was measured at 1 h, 2 h, 3 h, 4 h, and 5 h after administration to calculate the temperature difference from baseline.
Male SD rats, weighing 180-220 g were fed adaptively for 1 week, with the environmental temperature maintained at 20-25° C. The rectal temperature of the rats was measured once daily at 10:00 am for two consecutive days to acclimate them to this procedure. The average of the two temperature measurements was taken as the baseline temperature. Rats with a temperature range of 37.0-38.6° C. and a fluctuation <0.5° C. were selected for the experiment. Each rat was subcutaneously injected with 10 ml/kg of a 20% suspension of dry yeast to induce fever. (Preparation method: 120 g of dry yeast was weighed and placed in a mortar, gradually adding distilled water to grind into a uniform suspension, and then adjusted to a volume of 600 mL, prepare this solution fresh.) Six hours after injecting the yeast suspension, the body temperature of the rats was measured. Ninety rats with a temperature increase ranging from 1.0 to 2.2 degrees Celsius were selected and randomly divided into 9 groups based on their temperatures. These groups were as follows: (1) Model group: administered distilled water, (2) 7 batches of traditional Chinese medicine groups P-V: dosage of 3.34 g crude drugs/kg, (3) Positive control group: administered aspirin suspension, dosage of 0.20 g/kg. Each group was orally gavaged with the corresponding solvent or drug, and rectal temperature was measured at 1 h, 2 h, 3 h, 4 h, and 5 h after administration to calculate the temperature difference from baseline.

Compound: CC(=O)Oc1ccccc1C(=O)O [Aspirin, aspirin]
- Temperature rise degrees after administration of medication (ΔT), 1 h (1 h after oral gavage): 0.40 ± 0.24 degrees
- Temperature rise degrees after administration of medication (ΔT), 2 h (2 h after oral gavage): 0.34 ± 0.37 degrees
- Temperature rise degrees after administration of medication (ΔT), 3 h (3 h after oral gavage): 0.27 ± 0.28 degrees
- Temperature rise degrees after administration of medication (ΔT), 4 h (4 h after oral gavage): 0.22 ± 0.23 degrees
- Temperature rise degrees after administration of medication (ΔT), 5 h (5 h after oral gavage): 0.22 ± 0.24 degrees
- Degrees of temperature rise after administration of medication (ΔT), 1 h (verification study, 1 h after oral gavage): 0.42 ± 0.34 Degrees
- Degrees of temperature rise after administration of medication (ΔT), 2 h (verification study, 2 h after oral gavage): 0.42 ± 0.31 Degrees
- Degrees of temperature rise after administration of medication (ΔT), 3 h (verification study, 3 h after oral gavage): 0.34 ± 0.31 Degrees
- Degrees of temperature rise after administration of medication (ΔT), 4 h (verification study, 4 h after oral gavage): 0.23 ± 0.30 Degrees
- Degrees of temperature rise after administration of medication (ΔT), 5 h (verification study, 5 h after oral gavage): 0.17 ± 0.13 Degrees

From patent US12409192B2, “Traditional Chinese medicine composition and use thereof” (JIANGSU KANION PHARMACEUTICAL CO., LTD, priority 2021, dated 2025)
